According to patent US20250230193A1, “CYCLIC COMPOUND HAVING SELECTIVE KRAS INHIBITORY EFFECT ON HRAS AND NRAS” (CHUGAI SEIYAKU KABUSHIKI KAISHA, priority 2022, published 2025):
Where a SMILES comes first, the peptide text is derived from it. Bridges are numbered along the chain shown (N, C = ends). [ ]: non-standard residue; d: D form. The star is where a group is joined. hPhe(3-Cl-4-CF3) = N[C@@H](CCc1ccc(C(F)(F)F)c(Cl)c1)C(=O)O; NPrPhe(4-CF3) = CCCN[C@@H](Cc1ccc(C(F)(F)F)cc1)C(=O)O; NMeGly(cPent) = CN[C@H](C(=O)O)C1CCCC1; Pro(4,4-F2) = O=C(O)[C@@H]1CC(F)(F)CN1; NMeD = CN[C@@H](CC(=O)O)C(=O)O; NMeL = CN[C@@H](CC(C)C)C(=O)O; Morpholide = C1CN(*)CCO1; Ac5c = NC1(C(=O)O)CCCC1; NEtG = CCNCC(=O)O; Sar = CNCC(=O)O

Key:
[1] = target: GDP-bound HRAS wild-type protein (Homo sapiens, UniProt P01112); experiment: Binding to HRAS by surface plasmon resonance (SPR), Single Cycle Kinetics
[2] = target: GDP-bound NRAS wild-type protein (Homo sapiens, UniProt P01111); experiment: Binding to NRAS by surface plasmon resonance (SPR), Single Cycle Kinetics
[3] = KD ratio, GDP-bound HRAS wild-type vs GDP-bound KRAS wild-type, SPR
[4] = KD ratio, GDP-bound NRAS wild-type vs GDP-bound KRAS wild-type, SPR

Chain of GDP-bound NRAS wild-type protein (P01111 whole entry): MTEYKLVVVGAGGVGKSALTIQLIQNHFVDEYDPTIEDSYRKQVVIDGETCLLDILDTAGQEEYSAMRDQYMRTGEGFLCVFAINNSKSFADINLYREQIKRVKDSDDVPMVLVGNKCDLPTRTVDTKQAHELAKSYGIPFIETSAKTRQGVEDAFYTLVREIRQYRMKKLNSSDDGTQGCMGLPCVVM
Chain of GDP-bound HRAS wild-type protein (P01112 whole entry): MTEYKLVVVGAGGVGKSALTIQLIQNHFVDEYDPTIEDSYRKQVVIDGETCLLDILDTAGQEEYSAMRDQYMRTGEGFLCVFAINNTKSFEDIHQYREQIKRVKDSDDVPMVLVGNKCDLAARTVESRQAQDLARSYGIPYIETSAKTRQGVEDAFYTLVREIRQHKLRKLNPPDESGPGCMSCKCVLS

SMILES: CCO[C@@H]1C[C@H]2C(=O)NC3(CCC3)C(=O)N(C)[C@@H](C3CCCC3)C(=O)N(C)[C@H](C(=O)N(C)C)CC(=O)N(C)[C@@H](CC3CCCC3)C(=O)N[C@@H]([C@@H](C)CC)C(=O)N(C)CC(=O)N(C)[C@H]3C/C=C\CCN(C3=O)[C@@H](Cc3ccc(C)cc3)C(=O)N(C)CC(=O)N[C@@H](CCc3cc(C)c(C(F)F)c(F)c3)C(=O)N2C1 [PP2676]
- HRAS/KRAS (ratio of KD value with respect to GDP-bound HRAS wild-type protein to KD value with respect to KRAS) ([1]; KD ratio HRAS/KRAS, class symbols): A (a compound having 10 or more and less than 20 is denoted as A)
- NRAS/KRAS (ratio of KD value with respect to GDP-bound NRAS wild-type protein to KD value with respect to KRAS) ([2]; KD ratio NRAS/KRAS, class symbols): A (a compound having 10 or more and less than 20 is denoted as A)

SMILES: CCO[C@@H]1C[C@H]2C(=O)N(C)C3(CC(C)(C)C3)C(=O)N(C)[C@@H](C3CCCC3)C(=O)N(C)[C@H](C(=O)N(C)C)CC(=O)N(C)[C@H]3CCCCCc4ccc(cc4)C[C@@H](C(=O)N(C)CC(=O)N[C@@H](CCc4ccc(C(F)(F)F)c(OC)c4)C(=O)N2C1)N1CC/C=C\C[C@@H](C1=O)N(C)C(=O)CN(C)C(=O)[C@H]([C@@H](C)CC)NC3=O [PP3091]
- HRAS/KRAS (ratio of KD value with respect to GDP-bound HRAS wild-type protein to KD value with respect to KRAS) ([1]; KD ratio HRAS/KRAS, SPR, GDP-bound wild-type proteins): B (a compound having 3 or more and less than 10 is denoted as B)
- NRAS/KRAS (ratio of KD value with respect to GDP-bound NRAS wild-type protein to KD value with respect to KRAS) ([2]; KD ratio NRAS/KRAS, SPR, GDP-bound wild-type proteins): A (a compound having 10 or more and less than 20 is denoted as A)

SMILES: CC[C@H](C)[C@@H]1NC(=O)[C@H](CC)N(C)C(=O)C[C@@H](C(=O)N(C)C)N(CC)C(=O)[C@H](C2CCCC2)N(C)C(=O)C2(CCC2)NC(=O)[C@@H]2C[C@H](N3CCC(F)(F)CC3)CN2C(=O)[C@H](CCc2cc(F)c(C(F)(F)F)c(F)c2)NC(=O)CN(C)C(=O)[C@H](Cc2ccc(C(F)(F)F)cc2)N2CCCC[C@@H](C2=O)N(C)C(=O)CN(C)C1=O [PP0659]
- HRAS/KRAS (ratio of KD value with respect to GDP-bound HRAS wild-type protein to KD value with respect to KRAS) ([1]; KD ratio HRAS/KRAS, SPR): B (a compound having 3 or more and less than 10 is denoted as B)
- NRAS/KRAS (ratio of KD value with respect to GDP-bound NRAS wild-type protein to KD value with respect to KRAS) ([2]; KD ratio NRAS/KRAS, SPR): B (a compound having 3 or more and less than 10 is denoted as B)

SMILES: CCC[C@H]1C(=O)N[C@@H]([C@@H](C)CC)C(=O)N(C)CC(=O)N(C)[C@H]2C/C=C\CCN(C2=O)[C@@H](Cc2ccc(C)cc2)C(=O)N(C)CC(=O)N[C@@H](CCc2ccc(C(F)(F)F)c(Cl)c2)C(=O)N2C[C@@H](C)C[C@H]2C(=O)NC2(CC(C)(C)C2)C(=O)N(C)[C@@H](C2CCCC2)C(=O)N(C)[C@H](C(=O)N(C)CC)CC(=O)N1C [PP1893]
- HRAS/KRAS (ratio of KD value for HRAS to KD value for KRAS) [1, 3]: B (a compound having 3 or more and less than 10 is denoted as B)
- NRAS/KRAS (ratio of KD value for NRAS to KD value for KRAS) [2, 4]: A (a compound having 10 or more and less than 20 is denoted as A)

SMILES: CCCN1C(=O)CN(C)C(=O)CN(CC)C(=O)[C@H]([C@@H](C)CC)NC(=O)[C@H](CC(C)C)N(C)C(=O)C[C@@H](C(=O)N2CCOCC2)N(C)C(=O)[C@H](C2CCCC2)N(C)C(=O)C2(CCCC2)NC(=O)[C@@H]2CC(F)(F)CN2C(=O)[C@H](CCc2ccc(C(F)(F)F)c(Cl)c2)NC(=O)CN(C)C(=O)[C@@H]1Cc1ccc(C(F)(F)F)cc1 [PP0399] ([NMeL]I[NEtG][Sar][NPrPhe(4-CF3)][Sar][hPhe(3-Cl-4-CF3)][Pro(4,4-F2)][Ac5c][NMeGly(cPent)][NMeD]-Morpholide; lactam N-11)
- HRAS/KRAS (ratio of KD for GDP-bound HRAS wild-type to KD for KRAS) ([1]; KD ratio HRAS/KRAS, SPR): C (A compound having a KD ratio of 0.1 or more and less than 3 is denoted as C)
- NRAS/KRAS (ratio of KD for GDP-bound NRAS wild-type to KD for KRAS) ([2]; KD ratio NRAS/KRAS, SPR): B (a compound having 3 or more and less than 10 is denoted as B)

SMILES: CCCOC[C@H]1C(=O)N[C@@H]([C@@H](C)CC)C(=O)N(C)CC(=O)N(C)[C@H]2C/C=C\CCN(C2=O)[C@@H](Cc2ccc(C)cc2)C(=O)N(C)CC(=O)N[C@@H](CCc2cc(F)c(C(F)(F)F)c(F)c2)C(=O)N2C[C@H](CCC)C[C@H]2C(=O)NC2(CCC2)C(=O)N(C)[C@@H](C2CCCC2)C(=O)N(C)[C@H](C(=O)N(C)C)CC(=O)N1C [PP2232]
- HRAS/KRAS (ratio of KD value with respect to HRAS to KD value with respect to KRAS) ([1]; SPR, GDP-bound HRAS wild-type vs GDP-bound KRAS wild-type): A (a compound having 10 or more and less than 20 is denoted as A)
- NRAS/KRAS (ratio of KD value with respect to NRAS to KD value with respect to KRAS) ([2]; SPR, GDP-bound NRAS wild-type vs GDP-bound KRAS wild-type): A (a compound having 10 or more and less than 20 is denoted as A)

SMILES: CCO[C@@H]1C[C@H]2C(=O)NC3(CCC3)C(=O)N(C)[C@@H](C3CCCC3)C(=O)N(C)[C@H](C(=O)N(C)C)CC(=O)N(C)[C@@H](C)C(=O)N[C@@H]([C@@H](C)CC)C(=O)N(C)CC(=O)N(C)[C@H]3CCCCCN(C3=O)[C@@H](Cc3ccc(F)cc3)C(=O)N(C)CC(=O)N[C@@H](CCc3cc(F)c(C(F)(F)F)c(F)c3)C(=O)N2C1 [PP1189]
- HRAS/KRAS (ratio of KD value with respect to HRAS to KD value with respect to KRAS) [1, 3]: B (a compound having 3 or more and less than 10 is denoted as B)
- NRAS/KRAS (ratio of KD value with respect to NRAS to KD value with respect to KRAS) [2, 4]: B (a compound having 3 or more and less than 10 is denoted as B)
